From ChEMBL document CHEMBL1125884, “Synthesis and biochemical studies of 16- or 19-substituted androst-4-enes as aromatase inhibitors” (J Med Chem, 1991) come the findings set out here.

For experiment [1], the target named is T1, Aromatase (Homo sapiens, UniProt P11511).
T1 sequence (P11511 whole entry): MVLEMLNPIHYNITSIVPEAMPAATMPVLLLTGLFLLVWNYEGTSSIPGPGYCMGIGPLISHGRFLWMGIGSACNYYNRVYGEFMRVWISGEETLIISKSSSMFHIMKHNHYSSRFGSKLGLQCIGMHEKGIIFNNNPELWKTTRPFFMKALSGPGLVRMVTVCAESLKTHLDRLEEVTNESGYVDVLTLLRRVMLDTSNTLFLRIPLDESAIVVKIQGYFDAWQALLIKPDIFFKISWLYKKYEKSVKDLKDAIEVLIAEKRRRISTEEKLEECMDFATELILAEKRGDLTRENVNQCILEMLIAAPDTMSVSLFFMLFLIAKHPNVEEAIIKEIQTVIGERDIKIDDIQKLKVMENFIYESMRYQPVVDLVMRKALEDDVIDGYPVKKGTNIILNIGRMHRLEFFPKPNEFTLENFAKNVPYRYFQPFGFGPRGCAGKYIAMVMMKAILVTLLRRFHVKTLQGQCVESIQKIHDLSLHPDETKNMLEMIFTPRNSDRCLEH
As to the kind of experiment: Binding affinity for human placental microsome cytochrome P450 19A1 with 1 uM [1-beta-3H]-androstenedione.

The target of experiment [2] is T1, Aromatase.
Description: Inhibition of 1 uM [1-beta-3H]-androstenedione binding to human placental microsome Cytochrome P450 19A1

In the case of `C[C@]12CC[C@H]3[C@@H](CCC4=CCCC[C@@]43CO)[C@@H]1CCC2=O`, in experiment [1], affinity was put at a Ki of 13 nM. For the same compound, 270 nM corresponded to half-maximal inhibition in experiment [2] (IC50).
With `C[C@]12CC[C@H]3[C@@H](CCC4=CCCC[C@@]43C(F)F)[C@@H]1CC[C@@H]2O`, in experiment [2], it took 26000 nM to reach half-maximal inhibition (IC50).
On to `CC(=O)OCC12CCCC=C1CCC1C2CCC2(C)C(OC(C)=O)CCC12` (centres undefined), for which it took 38000 nM to reach half-maximal inhibition in experiment [2] (IC50).
With `CC12CCCC=C1CCC1C2CCC2(C)C(O)CCC12` (centres undefined), the Ki (commonly a dissociation constant, usually derived from enzyme kinetics or from competition with a known ligand) in experiment [1] is 830 nM. Further, in experiment [2], half-maximal inhibition (IC50) was put at 7300 nM.
For the compound `CC12CCC3C(CCC4=CCCCC43CO)C1CCC2O` (centres undefined), in experiment [1], the affinity, expressed as Ki, was 170 nM. In addition, the IC50 – broadly, the concentration that gives 50% inhibition – in experiment [2] amounted to 2300 nM.
As for `CC(=O)OCC12CCCC=C1CCC1C2CCC2(C)C(O)CCC12` (centres undefined), inhibition in experiment [2] was half-maximal at 44000 nM (IC50).
For `CC12CCC3C(CCC4=CCCCC43C)C1C[C@H](Br)C2=O` (some centres undefined), the Ki in experiment [1] was determined as 455 nM. This compound also displayed an IC50 in experiment [2] of 5900 nM.
In turn, `CC(=O)OC1CCC2C3CCC4=CCCCC4(CO)C3CCC12C` (centres undefined) had an IC50 in experiment [2] of 100000 nM.
`C#CC(O)C12CCCC=C1CCC1C3CCC(=O)C3(C)CCC12` (centres undefined) returned a Ki in experiment [1] of 7750 nM. This compound also returned an IC50 in experiment [2] of 62000 nM.
The matching figures for `CC12CCC3C(CCC4=CCCCC43C)C1C[C@@H](Br)C2=O` (some centres undefined): 228 nM and 4100 nM.
The matching figures for `CC12CCC3C(CCC4=CCCCC43C(F)F)C1CCC2=O` (centres undefined): 443 nM and 1200 nM.
On to `C[C@]12CCC(=O)C(O)=C1CC[C@@H]1[C@@H]2CC[C@]2(C)C(=O)CC[C@@H]12` [FORMESTANE], for which 410 nM corresponded to half-maximal inhibition in experiment [2] (IC50).
